Data: patent US8962558B2, “Methods for reducing GnRH-positive tumor cell proliferation using the GnRH antagonist IN3” (priority 1997, dated 2015)
Square brackets hold non-standard residues; d marks the D form. Peptide text beside a SMILES is read from it. * marks the point of attachment. dPhe(4-NHCONH2) = NC(=O)Nc1ccc(C[C@@H](N)C(=O)O)cc1; Dihydroorotyl(S) = O=C1C[C@@H](C(=O)*)NC(=O)N1; d(hArg(Et2)) = CCN=C(NCC)NCCCC[C@@H](N)C(=O)O; dPhe(4-NH2) = Nc1ccc(C[C@@H](N)C(=O)O)cc1; hArg(Et2) = CCN=C(NCC)NCCCC[C@H](N)C(=O)O; dPhe(4-Cl) = N[C@H](Cc1ccc(Cl)cc1)C(=O)O; Phe(4-NH2) = Nc1ccc(C[C@H](N)C(=O)O)cc1; d2Nal = N[C@H](Cc1ccc2ccccc2c1)C(=O)O; Lys(iPr) = CC(C)NCCCC[C@H](N)C(=O)O; NMeY = CN[C@@H](Cc1ccc(O)cc1)C(=O)O; d3Pal = N[C@H](Cc1cccnc1)C(=O)O

Experiments:
[1] = system: small cell lung carcinoma cell lines NCI-H1688, NCI-H1417, NCI-H1672, NCI-H1836, DMS-79, DM-553, DMS-114, SW-1271, NCI-H2227, NCI-HI1963, SHP-77 and H-69 AR; test: Proliferation assay on small cell lung carcinoma cell lines (Example 3); format: cell-based, human; settings: small cell lung carcinoma cell lines treated with the substance
Protocol: In another embodiment, the small cell lung carcinoma cell lines NCI-H1688, NCI-H1417, NCI-H1672, NCI-H1836, DMS-79, DM-553, DMS-114, SW-1271, NCI-H2227, NCI-HI1963 and SHP-77 in addition to the multidrug-resistant small cell lung carcinoma cell line H-69 AR, are cultured as described above and then treated as described by Emons, G., et al., 1993, supra, and Irmer, G., 1995, supra, with various concentrations of the GnRH agonists (D-Lys6)-GnRH, Lutrelin, Histrelin, Nafarelin, Azagly-Nafarelin, Deslorelin, Cystorelin, Decapeptyl, Gonadorelin, GnRH, D-Lys(6)-GnRH II, Lamprey GnRH II, (D-Lys6)-Lamprey GnRH, (D-Lys6)-Lamprey GnRH II and Lamprey GnRH III.
In another embodiment, the small cell lung carcinoma cell lines NCI-H1688, NCI-H1417, NCI-H1672, NCI-H1836, DMS-79, DM-553, DMS-114, SW-1271, NCI-H2227, NCI-HI1963 and SHP-77 in addition to the multidrug-resistant small cell lung carcinoma cell line H-69 AR, are cultured as described above for the above-mentioned cell lines, and then treated as described by Emons, G., et al., 1993, supra, and Irmer, G., 1995, supra, with a concentration of the GnRH antagonist Cetrorelix (also known as Cetrotide®) or with a GnRH peptide antagonist Ac-D-Nal(2)-D-4-ClPhe-D-Pal-Ser-1-MePal-D-IsopropylLys-Leu-IsopropylLys-Pro-D-AlaNH2 wherein Mepal is 1-Methyl-3-[3′-pyridyl]-alanine or Ant 135-25 (also known as Ac-D-Nal(2)-D-4-Cl-Phe-D-Pal-Ser-1-MePal-D-IsopropylLys-Leu-IsopropylLys-Pro-D-AlaNH2), Teverelix (also known as Antarelix®), Cetrorelix (also known as Cetrotide®), Abarelix (also known as Plenaxis®), D-63153 (also known as Ozarelix®), acyline, azaline B, antide (also known as Iturelix®), Degarelix (FE200486), Ganirelix, Nal-Glu, Orntide (also known as Ornirelix®) or with antagonist peptidomimetic ((2S)-2-[5-[2-(2-azabicyclo[2,2,2]oct-2-yl)-1,1-dimethyl-2-oxoethyl]-2-(3,5-dimethylphenyl)-1H-indol-3-yl]-N-(2-pyridin-4-ylethyl-)propan-1-amine (also known as “IN3”).

[2] = system: human glioblastoma cell lines U-87MG or U-373MG, Kaposi sarcoma cell lines KSY-1 or KS-SLK, malignant melanoma cell line MV3 or BLM, medulloblastoma cell line …; test: Proliferation assay on cell cultures (Example 3); format: cell-based; settings: for anti-proliferative effects in tumor cells: cell lines of Example 3 treated with the substance; for anti-proliferative effect compared with Cetrorelix only: given additionally as a second GnRH antagonist
Protocol: A human cell line, such as the well known human glioblastoma cell lines U-87MG or U-373MG (Pinski et al., supra), or a human cell line such as the well known Kaposi sarcoma cell lines KSY-1 or KS-SLK (Parkash et al., 1996, New England Journal of Medicine, 335, 17, 1261-1269), or a human cell line such as the well known human malignant melanoma cell line MV3 or BLM (Goldbrunner, R. H., et al., 1996, Anticancer Research 16 (6B), 3679-87), or a human medulloblastoma cell line such as the well known cell line Daoy or D283 MED (Stockhammer et al., 1995, J. Neurosurgery, 83, 672-681), or human meningeoma cell cultures (Boyle-Wash, E., et al., 1995, Journal of Endocrinology, 145, 155-161), are cultured as previously described for the above-mentioned cell lines and then treated with a concentration of the GnRH agonist Triptorelin®, GnRH antagonist SB-75 (Cetrorelix®) or GnRH antagonist Ramorelix®. […]
In another embodiment, the above-mentioned cell lines are treated as described by Emons, G., et al., 1993, supra, and Irmer, G., 1995, supra, with a concentration of the GnRH peptide antagonist Ac-D-Nal(2)-D-4-ClPhe-D-Pal-Ser-1-MePal-D-IsopropylLys-Leu-IsopropylLys-Pro-D-AlaNH2 (also known as Ant 135-25; the Mepal portion is known as 1-Methyl-3-[3′-pyridyl]-alanine), Teverelix (also known as Antarelix®), Cetrorelix (also known as Cetrotide®), Abarelix (also known as Plenaxis®), D-63153 (also known as Ozarelix®), acyline, azaline B, antide (also known as Iturelix®), Degarelix (FE200486), Ganirelix, Nal-Glu, Orntide (also known as Ornirelix®), Elagolix, or with antagonist peptidomimetic ((2S)-2-[5-[2-(2-azabicyclo[2,2,2]oct-2-yl)-1,1-dimethyl-2-oxoethyl]-2-(3,5-dimethylphenyl)-1H-indol-3-yl]-N-(2-pyridin-4-ylethyl-)propan-1-amine (also known as “IN3”).
In another embodiment, the cell lines used above were each additionally treated with a second GnRH antagonist, namely one of the GnRH antagonists Cetrorelix®, Ant 135-25, IN3, degarelix, Antarelix®, Antide®, and Ramorelix® or alternatively with one of the GnRH antagonists that have been disclosed in U.S. Pat. Nos. 6,939,88, 6,200,957, 5,296,468, 4,851,385, 7,361,633, 7,288,517, WO/2009/106597 or PCT/EP2009/052326, U.S. Pat. Nos. 5,480,969, 5,198,533, or UK Patent GB 2 246782 B, wherein these additional treatment procedures were carried out in a manner similar to those reported in Emons et al., supra, using SB 75 (Cetrorelix®). […]

**Q.** Which results are given for CC(=O)N[C@H](Cc1ccc2ccccc2c1)C(=O)N[C@H](Cc1ccc(Cl)cc1)C(=O)N[C@H](Cc1cccnc1)C(=O)N[C@@H](CO)C(=O)N(C)[C@@H](Cc1ccc(O)cc1)C(=O)N[C@H](CC(N)=O)C(=O)N[C@@H](CC(C)C)C(=O)N[C@@H](CCCCNC(C)C)C(=O)N1CCC[C@H]1C(=O)N[C@H](C)C(N)=O [Abarelix] (Ac-[d2Nal][dPhe(4-Cl)][d3Pal]S[NMeY][dN]L[Lys(iPr)]P[dA]-NH2)?
**A.** anti-proliferative effects in tumor cells [1]: Significant anti-proliferative effects; anti-proliferative effects in tumor cells [2]: Significant anti-proliferative effects

**Q.** With CC(C)C[C@H](NC(=O)[C@@H](Cc1c[nH]c2ccccc12)NC(=O)[C@H](Cc1ccc(O)cc1)NC(=O)[C@H](CO)NC(=O)[C@H](Cc1c[nH]c2ccccc12)NC(=O)[C@H](Cc1c[nH]cn1)NC(=O)[C@@H]1CCC(=O)N1)C(=O)N[C@@H](CCCNC(=N)N)C(=O)N1CCC[C@H]1C(=O)NCC(N)=O [Decapeptyl] as the molecule, how does the “anti-proliferative effects in tumor cells” value (shortened to “anti-proliferative effects”) [1] read?
**A.** Significant anti-proliferative effects

**Q.** How did the “anti-proliferative effects” value [1] turn out when CC(=O)N[C@H](Cc1ccc2ccccc2c1)C(=O)N[C@H](Cc1ccc(Cl)cc1)C(=O)N[C@H](Cc1cccnc1)C(=O)N[C@@H](CO)C(=O)N[C@@H](Cc1ccc(NC(=O)[C@@H]2CC(=O)NC(=O)N2)cc1)C(=O)N[C@H](Cc1ccc(NC(N)=O)cc1)C(=O)N[C@@H](CC(C)C)C(=O)N[C@@H](CCCCNC(C)C)C(=O)N1CCC[C@H]1C(=O)N[C@H](C)C(N)=O [Degarelix] (Ac-[d2Nal][dPhe(4-Cl)][d3Pal]S[Phe(4-NH2)](Dihydroorotyl(S))[dPhe(4-NHCONH2)]L[Lys(iPr)]P[dA]-NH2) was run?
**A.** Significant anti-proliferative effects

**Q.** What about the “anti-proliferative effects” value [2] of the same molecule?
**A.** Significant anti-proliferative effects

**Q.** And the “anti-proliferative effect compared with Cetrorelix only” value [2]?
**A.** significantly stronger anti-proliferative effect

**Q.** Which results are given for CCNC(=O)[C@@H]1CCCN1C(=O)[C@H](CCCN=C(N)N)NC(=O)[C@H](CC(C)C)NC(=O)[C@@H](Cc1c[nH]c2ccccc12)NC(=O)[C@H](Cc1ccc(O)cc1)NC(=O)[C@H](CO)NC(=O)[C@H](Cc1c[nH]c2ccccc12)NC(=O)[C@H](Cc1cnc[nH]1)NC(=O)[C@@H]1CCC(=O)N1 [Deslorelin]?
**A.** anti-proliferative effects in tumor cells [1]: Significant anti-proliferative effects; anti-proliferative effects in tumor cells [2]: Significant anti-proliferative effects

**Q.** For COc1cccc(-c2c(C)n(Cc3c(F)cccc3C(F)(F)F)c(=O)n(C[C@H](NCCCC(=O)O)c3ccccc3)c2=O)c1F [Elagolix, 4-[[(1R)-2-[5-(2-Fluoro-3-methoxyphenyl)-3-[[2-fluoro-6(trifluoromethyl)phenyl]methyl]-3,6-dihydro-4-methyl-2,6-dioxo-1(2H)-pyrimidinyl]-1-phenylethyl]amino]butanoic acid], which “anti-proliferative effects” value [2] is on record?
**A.** Significant anti-proliferative effects

**Q.** With CCN=C(NCC)NCCCC[C@H](NC(=O)[C@H](CC(C)C)NC(=O)[C@@H](CCCCNC(=NCC)NCC)NC(=O)[C@H](Cc1ccc(O)cc1)NC(=O)[C@H](CO)NC(=O)[C@@H](Cc1cccnc1)NC(=O)[C@@H](Cc1ccc(Cl)cc1)NC(=O)[C@@H](Cc1ccc2ccccc2c1)NC(C)=O)C(=O)N1CCC[C@H]1C(=O)N[C@H](C)C(N)=O [Ganirelix] (Ac-[d2Nal][dPhe(4-Cl)][d3Pal]SY[d(hArg(Et2))]L[hArg(Et2)]P[dA]-NH2) as the molecule, how does the “anti-proliferative effects” value [1] read?
**A.** Significant anti-proliferative effects

**Q.** What about the “anti-proliferative effects” value [2] of the same molecule?
**A.** Significant anti-proliferative effects

**Q.** CC(C)C[C@H](NC(=O)CNC(=O)[C@H](Cc1ccc(O)cc1)NC(=O)[C@H](CO)NC(=O)[C@H](Cc1c[nH]c2ccccc12)NC(=O)[C@H](Cc1cnc[nH]1)NC(=O)[C@@H]1CCC(=O)N1)C(=O)N[C@@H](CCCNC(=N)N)C(=O)N1CCC[C@H]1C(=O)NCC(N)=O [Gonadorelin] was tested. Which “anti-proliferative effects” value [1] did it give?
**A.** Significant anti-proliferative effects

**Q.** What about the “anti-proliferative effects” value [2] of the same molecule?
**A.** Significant anti-proliferative effects

**Q.** What does the source list for CCNC(=O)[C@@H]1CCCN1C(=O)[C@H](CCCNC(=N)N)NC(=O)[C@H](CC(C)C)NC(=O)[C@@H](Cc1cn(Cc2ccccc2)cn1)NC(=O)[C@H](Cc1ccc(O)cc1)NC(=O)[C@H](CO)NC(=O)[C@H](Cc1c[nH]c2ccccc12)NC(=O)[C@H](Cc1cnc[nH]1)NC(=O)[C@@H]1CCC(=O)N1 [Histrelin]?
**A.** anti-proliferative effects in tumor cells [1]: Significant anti-proliferative effects; anti-proliferative effects in tumor cells [2]: Significant anti-proliferative effects

**Q.** Which results are given for Cc1cc(C)cc(-c2[nH]c3ccc(C(C)(C)C(=O)N4CC5CCC4CC5)cc3c2[C@H](C)CNCCc2ccncc2)c1 [IN3, (2S)-2-[5-[2-(2-azabicyclo[2,2,2]oct-2-yl)-1,1-dimethyl-2-oxoethyl]-2-(3,5-dimethylphenyl)-1H-indol-3-yl]-N-(2-pyridin-4-ylethyl-)propan-1-amine]?
**A.** anti-proliferative effects in tumor cells [1]: Significant anti-proliferative effects; anti-proliferative effects in tumor cells [2]: Significant anti-proliferative effects; anti-proliferative effect compared with Cetrorelix only [2]: significantly stronger anti-proliferative effect

**Q.** How did the “anti-proliferative effects” value [1] turn out when CCNC(=O)[C@@H]1CCCN1C(=O)[C@H](CCCN=C(N)N)NC(=O)[C@H](CC(C)C)N(C)C(=O)[C@@H](Cc1c[nH]c2ccccc12)NC(=O)[C@H](Cc1ccc(O)cc1)NC(=O)[C@H](CO)NC(=O)[C@H](Cc1c[nH]c2ccccc12)NC(=O)[C@H](Cc1cnc[nH]1)NC(=O)[C@@H]1CCC(=O)N1 [Lutrelin] was run?
**A.** Significant anti-proliferative effects

**Q.** What about the “anti-proliferative effects” value [2] of the same molecule?
**A.** Significant anti-proliferative effects

**Q.** CC(=O)Nc1ccc(C[C@H](NC(=O)[C@H](CO)NC(=O)[C@@H](Cc2cccnc2)NC(=O)[C@@H](Cc2ccc(Cl)cc2)NC(=O)[C@@H](Cc2ccc3ccccc3c2)NC(C)=O)C(=O)N[C@H](Cc2ccc(NC(C)=O)cc2)C(=O)N[C@@H](CC(C)C)C(=O)N[C@@H](CCCCNC(C)C)C(=O)N2CCC[C@H]2C(=O)N[C@H](C)C(N)=O)cc1 [acyline] (Ac-[d2Nal][dPhe(4-Cl)][d3Pal]S[Phe(4-NH2)](Ac)[dPhe(4-NH2)](Ac)L[Lys(iPr)]P[dA]-NH2) was tested. Which “anti-proliferative effects” value [1] did it give?
**A.** Significant anti-proliferative effects

**Q.** What about the “anti-proliferative effects” value [2] of the same molecule?
**A.** Significant anti-proliferative effects
